Reference: patent US20090088439A1, “Diazinane Compounds” (priority 2007, published 2009)

Experiments:
[1] = molecular target: T1, GABAB(1A,2) receptor heterodimer (Homo sapiens, UniProt O75899+Q9UBS5); experiment: GTPγS35 radioligand filtration-binding assay for determination of PAM potency; assay type: biochemical; conditions: membranes of CHO-K1 cells expressing GABABR1a/GABABR2; concentration required to reduce GABA's EC50 by 50%; PAM at 10, 1, 0.1 and 0.01 μM; read-out: Mean (EC50 derived) PAM EC50
T1 construct: expressed in transfected cells; membrane preparation
Source text: The effect of GABA in an automated GTPγS^35 radioligand filtration-binding assay in CHO cells expressing the GABAB(1A,2) receptor heterodimer was studied in the presence or absence of the positive allosteric modulator test compounds. […]
(§1) The GABAB receptor is a G-protein coupled receptor. Binding of a ligand activates the receptor leading to recruitment of G-protein and a substitution of the G-protein bound GDP to GTP. The G-protein becomes active. The G-protein is inactivated by hydrolysis of GTP to GDP. G-proteins are membrane bound and therefore present in membrane preparations.
(§2) In the GTPγS^35 assay, GTP is not present but instead GTPγS^35 where one of the phosphate groups are substituted to a sulphur group which cannot be hydrolysed. Upon activation of the receptor, radiolabelled GTPγS^35 replaces the GDP. The complex cannot be inactivated and the radiolabelled complex is accumulating. At the end of the assay, the reaction mixture is filtered through a membrane-binding filter. Excess GTPγS^35 is removed by washing and the membrane bound S^35, which correlates to the degree of receptor activation, is measured with a β-Liquid Scintillation Counter.
GABABR1a and GABABR2 were cloned from human brain cDNA and subcloned into pCI-Neo (Promega) and pALTER-1 (Promega), respectively.
In order to optimise the Kozak consensus sequence of GABABR2, in situ mutagenesis was performed using the Altered Sites Mutagenesis kit according to manufacturer's instruction (Promega) with the following primer,
5′-[…]-3′. The optimised GABABR2 was then restricted from pALTER-1 with Xho I+Kpn I and subcloned into the mammalian expression vector pcDNA3.1(−)/Zeo (Invitrogen) to produce the final construct, pcDNA3.1(−)/Zeo-GABABR2.
For generation of stable cell lines, CHO-K1 cells were grown in Nut mix F-12 (Ham) media supplemented with 10% FBS, 100 U/ml Penicillin and 100 μg/ml Streptomycin at 37° C. in a humidified CO2-incubator. The cells were detached with 1 mM EDTA in PBS and 1 million cells were seeded in 100 mm petri dishes. After 24 hours the culture media was replaced with OptiMEM and incubated for 1 hour in a CO2-incubator.
For generation of a cell line expressing the GABABR1a/GABABR2 heterodimer, GABABR1a plasmid DNA (4 μg) GABABR2 plasmid DNA (4 μg) and lipofectamine (24 μl) were mixed in 5 ml OptiMEM and incubated for 45 minutes at room temperature. The cells were exposed to the transfection medium for 5 hours, which then was replaced with culture medium. The cells were cultured for an additional 10 days before selection agents (300 μg/ml hygromycin and 400 μg/ml geneticin) were added. Twenty-four days after transfection, single cell sorting into 96-well plates by flow cytometry was performed using a FACS Vantage SE (Becton Dickinson, Palo Alto, Calif.). After expansion, the GABAB receptor functional response was tested by measuring the GABAB receptor dependent release of intracellular calcium in a fluorescence imaging plate reader (FLIPR). The clone with the highest functional response was collected, expanded and then subcloned by single cell sorting. The clonal cell line with the highest peak response in the FLIPR was used in the present study.
GTPγS^35 radioligand filtration-binding assays were performed using an automated workstation at 30° C. for 1 hour in assay buffer (50 mM HEPES, 40 mM NaCl, 1 mM MgCl2×6H2O, 30 μg/mL Saponin, pH 7.4 at RT) containing 0.025 μg/μL of membrane protein (prepared from the cell line described above), 10 μM GDP and 0.55 nCi/μL GTPγS^35 in a final volume of 60 μL. The reaction was started by the addition of serially diluted GABA (final start concentration 1 mM dilution factor 3) in the presence or absence of four concentrations (final conc 10, 1, 0.1 and 0.01 μM) of PAM. The reaction was terminated and membranes collected by addition of ice-cold wash buffer (50 mM Tris-HCl, 5 mM MgCl2×6H2O, 50 mM NaCl, pH 7.4 at 4° C.) followed by rapid filtration under vacuum through a MultiScreen HTS 384 FB filter plate. […]

[2] = molecular target: T2, GABABR1a/GABABR2 heterodimer (Homo sapiens, UniProt O75899+Q9UBS5); experiment: GTPγS35 radioligand filtration-binding assay for determination of agonist potency; assay type: biochemical; conditions: membranes of CHO K1 Flp-In cells expressing GABABR1a/GABABR2; compound alone
T2 construct: expressed in transfected cells; membrane preparation
Protocol: The potency and efficacy of the compounds acting as agonists at the GABAB receptor was also determined in a automated GTPγS^35 radioligand filtration-binding assay.
as §1, §2
The human GABABR1a was subcloned into pIRESneo3 (Clontech) using GABABR1a construct as a template (refseqN NM001470). GABABR2 was subcloned into pCDNA5/FRT (Invitrogen) using GABABR2 construct as a template (refseqN NM005458). The Kozak sequence GCCACC was introduced before the start codon in both constructs.
For generation of stable cell lines, CHO K1 Flp-In cells (Invitrogen) were grown in DMEM/F 12 1:1 media supplemented with 10% FBS at 37° C. in a humidified CO2-incubator. The cells were detached with Accutase and 1.5 million cells were seeded into T75 flasks. After 24 h, transfection of the cells were performed with the GABABR2 construct. For generation of cell lines expressing GABABR2, GABABR2 plasmid (1 μg) and pOG44 from Invitrogen (9 μg) were mixed with 30 μl Lipofectamine 2000 in 600 μl OptiMEM for 20 minutes. The cells were exposed to transfection medium for 5 hours and was then replaced with culture medium. After 2 days 0.5 mg/ml Hygromycin were added to culture medium. The cells were cultured for an additional 10 days to establish a stable cell mix expressing GABABR2. For generation of a cell line expressing the GABABR1a/GABABR2 heterodimer, GABABR1a plasmid DNA (8 μg) and Lipofectamine (30 μl) were mixed in 600 μl OptiMEM and incubated for 20 minutes before added to CHO-Flp-In cells expressing GABABR2. After 2 days additional selection agent was added (0.8 mg/ml Geneticin). The cells were cultured for another 10 days to generate a stable mixed population expressing the GABABR1a/GABABR2 heterodimer. The cell line was analyzed by GTPγS^35 assay with GABA as agonist.
GTPγS^35 radioligand filtration-binding assays were performed using an automated workstation at 30° C. for 1 hour in assay buffer (50 mM HEPES, 40 mM NaCl, 1 mM MgCl2×6H2O, 30 μg/mL Saponin, pH 7.4 at RT) containing 0.025 μg/μL of membrane protein (prepared from the cell line described above), 10 μM GDP and 0.55 nCi/μL GTPγS^35 in a final volume of 60 μL. The reaction was started by the addition of compounds (GABA was always included as a positive control), start concentration 100 μM dilution factor 3. The reaction was terminated and membranes collected by addition of ice-cold wash buffer (50 mM Tris-HCl, 5 mM MgCl2×6H2O, 50 mM NaCl, pH 7.4 at 4° C.) followed by rapid filtration under vacuum through a MultiScreen HTS 384 FB filter plate. Repeated washing of the filters with ice-cold wash buffer washed the unbound radioligand away. The filter plates were dried for 1½-2 hours at 50° C., then 8 μL scintillation liquid was added per well followed by incubation at RT for at least 20 minutes before bound radioactivity was determined using a β-Liquid Scintillation Counter (1450 Microbeta Trilux, Wallac, Finland)
100% activation (max) is calculated as the mean value for wells containing 1 mM GABA. […]

T2 sequence (Q9UBS5 15-961 limits assumed): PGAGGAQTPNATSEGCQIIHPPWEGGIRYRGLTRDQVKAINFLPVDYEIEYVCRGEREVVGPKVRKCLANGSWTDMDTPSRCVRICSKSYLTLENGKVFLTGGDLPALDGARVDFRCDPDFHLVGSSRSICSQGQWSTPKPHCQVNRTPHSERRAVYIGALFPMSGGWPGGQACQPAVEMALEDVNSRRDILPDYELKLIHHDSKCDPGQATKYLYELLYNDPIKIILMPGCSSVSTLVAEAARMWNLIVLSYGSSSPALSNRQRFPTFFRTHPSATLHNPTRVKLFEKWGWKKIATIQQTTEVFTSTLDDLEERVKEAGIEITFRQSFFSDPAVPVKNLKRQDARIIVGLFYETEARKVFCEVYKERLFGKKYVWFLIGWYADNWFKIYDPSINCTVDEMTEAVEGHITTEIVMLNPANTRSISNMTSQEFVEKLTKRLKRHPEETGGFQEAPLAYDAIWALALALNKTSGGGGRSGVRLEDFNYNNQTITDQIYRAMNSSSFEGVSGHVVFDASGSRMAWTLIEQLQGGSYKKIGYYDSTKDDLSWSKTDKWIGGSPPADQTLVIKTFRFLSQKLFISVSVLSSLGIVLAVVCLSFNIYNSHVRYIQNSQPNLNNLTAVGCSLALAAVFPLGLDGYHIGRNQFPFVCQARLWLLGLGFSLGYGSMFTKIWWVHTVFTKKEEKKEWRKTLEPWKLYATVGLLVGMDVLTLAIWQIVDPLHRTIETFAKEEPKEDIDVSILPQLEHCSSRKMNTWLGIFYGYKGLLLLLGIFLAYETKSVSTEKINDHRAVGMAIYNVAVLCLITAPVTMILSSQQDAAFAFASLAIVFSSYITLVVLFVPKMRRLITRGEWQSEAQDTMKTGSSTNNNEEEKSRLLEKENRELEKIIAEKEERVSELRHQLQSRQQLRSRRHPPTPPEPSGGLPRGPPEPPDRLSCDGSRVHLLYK
T2 sequence (O75899 42-941): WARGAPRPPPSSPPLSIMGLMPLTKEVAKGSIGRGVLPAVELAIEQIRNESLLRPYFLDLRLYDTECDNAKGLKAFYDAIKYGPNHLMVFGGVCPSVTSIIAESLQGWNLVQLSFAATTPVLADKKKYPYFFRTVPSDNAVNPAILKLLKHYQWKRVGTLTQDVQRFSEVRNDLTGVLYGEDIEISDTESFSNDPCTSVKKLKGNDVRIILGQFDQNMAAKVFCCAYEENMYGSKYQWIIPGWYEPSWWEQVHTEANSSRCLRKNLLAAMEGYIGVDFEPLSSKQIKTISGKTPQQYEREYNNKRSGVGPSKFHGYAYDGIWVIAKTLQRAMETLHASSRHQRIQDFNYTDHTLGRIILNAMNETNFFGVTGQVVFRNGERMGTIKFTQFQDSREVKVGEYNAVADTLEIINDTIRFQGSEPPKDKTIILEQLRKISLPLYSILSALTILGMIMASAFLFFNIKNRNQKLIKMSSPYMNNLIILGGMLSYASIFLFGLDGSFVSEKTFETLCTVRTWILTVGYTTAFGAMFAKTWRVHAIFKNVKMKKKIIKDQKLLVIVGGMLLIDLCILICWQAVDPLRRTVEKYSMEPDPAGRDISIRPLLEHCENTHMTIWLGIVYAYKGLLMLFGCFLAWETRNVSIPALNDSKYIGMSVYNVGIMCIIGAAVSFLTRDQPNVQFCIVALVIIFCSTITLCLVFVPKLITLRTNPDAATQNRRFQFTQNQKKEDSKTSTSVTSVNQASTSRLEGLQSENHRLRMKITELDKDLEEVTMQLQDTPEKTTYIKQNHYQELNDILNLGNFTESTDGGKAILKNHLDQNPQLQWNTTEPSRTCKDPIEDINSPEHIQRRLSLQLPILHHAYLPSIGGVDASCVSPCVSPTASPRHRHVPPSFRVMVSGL
T1 sequence (Q9UBS5 15-961 limits assumed): as the sequence (Q9UBS5 15-961 limits assumed) above
T1 sequence (O75899 42-941): as the sequence (O75899 42-941) above

Row | Molecule | EC50 [1] | EC50 [2]
1 | O=c1c2nccnc2n(CC2CCCCC2)c(=O)n1Cc1ccc(Cl)cc1 [Example 4, 3-(4-chlorobenzyl)-1-(cyclohexylmethyl)pteridine-2,4(1H,3H)-dione] | 600 nM | –
2 | 6-tert-butyl-3-(4-chlorobenzyl)-1-propylpteridine-2,4(1H,3H)-dione and 7-tert-butyl-3-(4-chlorobenzyl)-1-propylpteridine-2,4(1H,3H)-dione [Example 23] | – | 2200 nM
3 | C[Si](C)(C)CCn1c(=O)n(Cc2ccc(Cl)cc2)c(=O)c2nccnc21 [Example 3, 3-(4-chlorobenzyl)-1-[2-(trimethylsilyl)ethyl]pteridine-2,4(1H,3H)-dione] | 600 nM | –
4 | COc1ccc(Cn2c(=O)n(Cc3ccc(Cl)cc3)c(=O)c3nccnc32)cc1 [Example 9, 3-(4-chlorobenzyl)-1-(4-methoxybenzyl)pteridine-2,4(1H,3H)-dione] | 7000 nM | –
5 | O=c1c2nc3c(nc2n(CC(O)C(F)(F)F)c(=O)n1Cc1ccc(Cl)cc1)CCCC3 (centres unmarked) [Example 19, 3-(4-chlorobenzyl)-1-(3,3,3-trifluoro-2-hydroxypropyl)-6,7,8,9-tetrahydrobenzo[g]pteridine-2,4(1H,3H)-dione] | – | 1300 nM
6 | CC(C)(C)C(=O)Cn1c(=O)n(Cc2ccc(Cl)cc2)c(=O)c2nc3c(nc21)CCCC3 [Example 18, 3-(4-chlorobenzyl)-1-(3,3-dimethyl-2-oxobutyl)-6,7,8,9-tetrahydrobenzo[g]pteridine-2,4(1H,3H)-dione] | – | 500 nM
7 | CCCn1c(=O)n(Cc2ccc(Cl)cc2)c(=O)c2nccnc21 [Example 2, 3-(4-chlorobenzyl)-1-propylpteridine-2,4(1H,3H)-dione] | 4300 nM | –
8 | N#Cc1cccc(Cn2c(=O)n(Cc3ccc(Cl)cc3)c(=O)c3nc4c(nc32)CCCC4)c1 [Example 16, 3-{[3-(4-chlorobenzyl)-2,4-dioxo-3,4,6,7,8,9-hexahydrobenzo[g]pteridin-1(2H)-yl]methyl}benzonitrile] | – | 1000 nM

Next, values leading:

Row | EC50 [1] | EC50 [2] | Molecule
9 | 5100 nM | – | O=c1c2nccnc2n(Cc2ccccc2)c(=O)n1Cc1ccc(Cl)cc1 [Example 7, 1-benzyl-3-(4-chlorobenzyl)pteridine-2,4(1H,3H)-dione]
10 | 1300 nM | – | O=c1c2nccnc2n(CCc2ccccc2)c(=O)n1Cc1ccc(Cl)cc1 [Example 11, 3-(4-chlorobenzyl)-1-(2-phenylethyl)pteridine-2,4(1H,3H)-dione]
11 | 2900 nM | – | CC(C)(C)C(=O)Cn1c(=O)n(Cc2ccc(Cl)cc2)c(=O)c2nccnc21 [Example 5, 3-(4-chlorobenzyl)-1-(3,3-dimethyl-2-oxobutyl)pteridine-2,4(1H,3H)-dione]
12 | – | 1600 nM | C=CCn1c(=O)n(Cc2ccc(Cl)cc2)c(=O)c2nc3c(nc21)CCCC3 [Example 14, 1-allyl-3-(4-chlorobenzyl)-6,7,8,9-tetrahydrobenzo[g]pteridine-2,4(1H,3H)-dione]
13 | 6000 nM | – | COc1ccc(Cn2c(=O)n(Cc3ccc(Cl)cc3)c(=O)c3nccnc32)c(OC)c1 [Example 1, 3-(4-chlorobenzyl)-1-(2,4-dimethoxybenzyl)pteridine-2,4(1H,3H)-dione]
14 | – | 3700 nM | CCCn1c(=O)n(Cc2ccc(Cl)cc2)c(=O)c2nc3c(nc21)CCC3 [Example 22, 3-(4-chlorobenzyl)-1-propyl-7,8-dihydro-1H-cyclopenta[g]pteridine-2,4(3H,6H)-dione]
15 | – | 1400 nM | CCCn1c(=O)n(Cc2ccc(Cl)cc2)c(=O)c2nc3c(nc21)C(C)CC3C (mixture of isomers) [Example 12, 3-(4-chlorobenzyl)-6,8-dimethyl-1-propyl-7,8-dihydro-1H-cyclopenta[g]pteridine-2,4(3H,6H)-dione]
16 | – | 1600 nM | O=c1c2nc3c(nc2n(CCn2cccc2)c(=O)n1Cc1ccc(Cl)cc1)CCCC3 [Example 17, 3-(4-chlorobenzyl)-1-[2-(1H-pyrrol-1-yl)ethyl]-6,7,8,9-tetrahydrobenzo[g]pteridine-2,4(1H,3H)-dione]
17 | – | 800 nM | CCCn1c(=O)n(Cc2ccc(Cl)cc2)c(=O)c2nc(CC)c(CC)nc21 [Example 13, 3-(4-chlorobenzyl)-6,7-diethyl-1-propylpteridine-2,4(1H,3H)-dione]
18 | – | 7700 nM | CCCn1c(=O)n(Cc2ccc(Cl)cc2)c(=O)c2c1nc1c([n+]2[O-])CCCC1 [Example 21, 3-(4-chlorobenzyl)-1-propyl-6,7,8,9-tetrahydrobenzo[g]pteridine-2,4(1H,3H)-dione 5-oxide]
19 | 800 nM | – | O=C(c1ccccc1)c1ccc(Cn2c(=O)n(Cc3ccc(Cl)cc3)c(=O)c3nccnc32)cc1 [Example 10, 1-(4-benzoylbenzyl)-3-(4-chlorobenzyl)pteridine-2,4(1H,3H)-dione]
20 | 2400 nM | – | O=c1c2nccnc2n(Cc2ccc(Cl)cc2)c(=O)n1Cc1ccc(Cl)cc1 [Example 8, 1,3-bis(4-chlorobenzyl)pteridine-2,4(1H,3H)-dione]
